Results taken from patent US20240115654A1, “INTRAVENOUS ADMINISTRATION OF ENGINEERED ANTIMICROBIAL AMPHIPHILIC PEPTIDES” (priority 2021, published 2024).
Peptide text beside a SMILES is read from it.

Excerpt: All subjects who met eligibility criteria were confined to the clinical research unit from […] through Day 3. At admission, physical examination, vital signs, 12 lead ECG and weight were obtained, medical and medication history were updated if necessary, safety blood tests (hematology and chemistry), urinalysis, urine drug screen and an alcohol breath test were repeated and a urine pregnancy test was done for women of childbearing potential.
At each dose level, there were 2 sentinel subjects, (1 active, 1 placebo), who were dosed at least 48 hours in advance of the other subjects in their respective group. Following review of safety data, including physical examination, vital signs, and review of adverse events from the first 2 subjects, enrolment in the cohort continued.
A 12-lead ECG was performed on Day 1, within 60 minutes of infusion start (in triplicate), mid-way through the infusion, at the completion of the infusion, 30 minutes after completion of the infusion and at various timepoints following the end of the infusion.
Vital signs were recorded within 60 minutes pre-dose, at the mid-point of the infusion and post dose vitals were assessed at completion of the infusion, 0.5, 1, 2, 3, 4, 6, 9, 12, 24 and 48 hours post dose, after at least 3 minutes of rest in supine position.
Subjects returned to the study center 7 days after dosing, for the termination visit. A full physical examination, vital signs and weight were obtained, concomitant medications were updated if necessary, safety blood specimens (haematology and chemistry, PT and aPTT) and urine were collected for urinalysis and urine drug screening. A serum pregnancy test was done for women of childbearing potential and a 12-lead ECG was performed.
In this study dose limiting toxicity (DLT) was defined as any drug related ≥Grade 3 AEs occurring despite optimal therapeutic interventions (which included but were not limited to allergic/hypersensitivity reactions, dermatological reactions/infusion site reactions, haematological toxicities such as neutropenia, thrombocytopenia and anaemia and clinical chemistry abnormalities) experienced up to Day 7 (Termination Visit).
(§1) All subjects who received any amount of study drug were included in the safety analysis (Safety population).
The study was a double blinded, randomized, placebo-controlled study. The placebo administered was 0.9% sodium chloride.
On Day 1 (day of dosing), subjects were randomly assigned either peptide IV or Placebo IV. At each dose level, there were 2 sentinel subjects, (1 active, 1 placebo), who were dosed at least 48 hours in advance of the other subjects in their respective group. Following review of safety data, including physical examination, vital signs, and review of adverse events from the first 2 subjects, enrolment in the cohort continued. All subjects who met eligibility criteria were confined to the clinical research unit from Day −2 through Day 3. At admission, physical examination, vital signs, 12 lead ECG and weight were obtained, medical and medication history were updated if necessary, safety blood tests (hematology and chemistry), urinalysis, urine drug screen and an alcohol breath test were repeated and a urine pregnancy test was done for women of childbearing potential.
as §1

CC(C)[C@H](NC(=O)[C@H](Cc1c[nH]c2ccccc12)NC(=O)[C@H](CCCNC(=N)N)NC(=O)[C@H](CCCNC(=N)N)NC(=O)[C@@H](NC(=O)[C@@H](NC(=O)[C@H](CCCNC(=N)N)NC(=O)[C@@H](NC(=O)[C@@H](NC(=O)[C@H](CCCNC(=N)N)NC(=O)[C@H](CCCNC(=N)N)NC(=O)[C@H](Cc1c[nH]c2ccccc12)NC(=O)[C@@H](NC(=O)[C@H](CCCNC(=N)N)NC(=O)[C@H](CCCNC(=N)N)NC(=O)[C@@H](NC(=O)[C@H](CCCNC(=N)N)NC(=O)[C@H](CCCNC(=N)N)NC(=O)[C@@H](NC(=O)[C@H](Cc1c[nH]c2ccccc12)NC(=O)[C@H](CCCNC(=N)N)NC(=O)[C@@H](N)CCCNC(=N)N)C(C)C)C(C)C)C(C)C)C(C)C)C(C)C)C(C)C)C(C)C)C(=O)N[C@@H](CCCNC(=N)N)C(=O)N[C@@H](CCCNC(=N)N)C(N)=O [SEQ ID NO: 1] (H-RRWVRRVRRVWRRVVRVVRRWVRR-NH2)
TEAE severity Grade 5, participants n (%) (Pooled SEQ ID NO: 1 (N = 35)): 0 | Treatment-related TEAE: Abdominal distension, occurrences m (Pooled SEQ ID NO: 1 (N = 35)): 1 | Treatment-related TEAE: Abdominal distension, participants n (%) (Pooled SEQ ID NO: 1 (N = 35)): 1 (2.9%) | Treatment-related TEAE: Blood and Lymphatic System Disorders, participants n (%) (Pooled SEQ ID NO: 1 (N = 35)): 0 | Treatment-related TEAE: Constipation, participants n (%) (Pooled SEQ ID NO: 1 (N = 35)): 0 | Treatment-related TEAE: Diarrhea, occurrences m (Pooled SEQ ID NO: 1 (N = 35)): 1 | Treatment-related TEAE: Diarrhea, participants n (%) (Pooled SEQ ID NO: 1 (N = 35)): 1 (2.9%) | Treatment-related TEAE: Dizziness, occurrences m (Pooled SEQ ID NO: 1 (N = 35)): 1 | Treatment-related TEAE: Dizziness, participants n (%) (Pooled SEQ ID NO: 1 (N = 35)): 1 (2.9%) | Treatment-related TEAE: Feeling hot, participants n (%) (Pooled SEQ ID NO: 1 (N = 35)): 0 | Treatment-related TEAE: Gastrointestinal Disorders, occurrences m (Pooled SEQ ID NO: 1 (N = 35)): 3 | Treatment-related TEAE: Gastrointestinal Disorders, participants n (%) (Pooled SEQ ID NO: 1 (N = 35)): 2 (5.7%) | Treatment-related TEAE: General Disorders and Administration Site Conditions, occurrences m (Pooled SEQ ID NO: 1 (N = 35)): 11 | Treatment-related TEAE: General Disorders and Administration Site Conditions, participants n (%) (Pooled SEQ ID NO: 1 (N = 35)): 10 (28.6%) | Treatment-related TEAE: Headache, occurrences m (Pooled SEQ ID NO: 1 (N = 35)): 1 | Treatment-related TEAE: Headache, participants n (%) (Pooled SEQ ID NO: 1 (N = 35)): 1 (2.9%) | Treatment-related TEAE: Infusion related reaction, occurrences m (Pooled SEQ ID NO: 1 (N = 35)): 1 | Treatment-related TEAE: Infusion related reaction, participants n (%) (Pooled SEQ ID NO: 1 (N = 35)): 1 (20.0%) | Treatment-related TEAE: Infusion site discomfort, occurrences m (Pooled SEQ ID NO: 1 (N = 35)): 1 | Treatment-related TEAE: Infusion site discomfort, participants n (%) (Pooled SEQ ID NO: 1 (N = 35)): 1 (2.9%) | Treatment-related TEAE: Infusion site pain, occurrences m (Pooled SEQ ID NO: 1 (N = 35)): 3 | Treatment-related TEAE: Infusion site pain, participants n (%) (Pooled SEQ ID NO: 1 (N = 35)): 3 (8.6%) | Treatment-related TEAE: Infusion site reaction, occurrences m (Pooled SEQ ID NO: 1 (N = 35)): 4 | Treatment-related TEAE: Infusion site reaction, participants n (%) (Pooled SEQ ID NO: 1 (N = 35)): 4 (11.4%) | Treatment-related TEAE: Infusion site swelling, occurrences m (Pooled SEQ ID NO: 1 (N = 35)): 1 | Treatment-related TEAE: Infusion site swelling, participants n (%) (Pooled SEQ ID NO: 1 (N = 35)): 1 (2.9%) | Treatment-related TEAE: Injury, Poisoning, and Procedural Complications, occurrences m (Pooled SEQ ID NO: 1 (N = 35)): 1 | Treatment-related TEAE: Injury, Poisoning, and Procedural Complications, participants n (%) (Pooled SEQ ID NO: 1 (N = 35)): 1 (20.0%) | Treatment-related TEAE: Macule, occurrences m (Pooled SEQ ID NO: 1 (N = 35)): 1 | Treatment-related TEAE: Macule, participants n (%) (Pooled SEQ ID NO: 1 (N = 35)): 1 (2.9%) | Treatment-related TEAE: Musculoskeletal and Connective Tissue Disorders, occurrences m (Pooled SEQ ID NO: 1 (N = 35)): 1 | Treatment-related TEAE: Musculoskeletal and Connective Tissue Disorders, participants n (%) (Pooled SEQ ID NO: 1 (N = 35)): 1 (2.9%) | Treatment-related TEAE: Myalgia, occurrences m (Pooled SEQ ID NO: 1 (N = 35)): 1 | Treatment-related TEAE: Myalgia, participants n (%) (Pooled SEQ ID NO: 1 (N = 35)): 1 (2.9%) | Treatment-related TEAE: Oropharyngeal pain, participants n (%) (Pooled SEQ ID NO: 1 (N = 35)): 0 | Treatment-related TEAE: Orthostatic hypotension, occurrences m (Pooled SEQ ID NO: 1 (N = 35)): 1 | Treatment-related TEAE: Orthostatic hypotension, participants n (%) (Pooled SEQ ID NO: 1 (N = 35)): 1 (2.9%) | Treatment-related TEAE: Pain in extremity, participants n (%) (Pooled SEQ ID NO: 1 (N = 35)): 0 | Treatment-related TEAE: Phlebitis, occurrences m (Pooled SEQ ID NO: 1 (N = 35)): 3 | Treatment-related TEAE: Phlebitis, participants n (%) (Pooled SEQ ID NO: 1 (N = 35)): 3 (8.6%) | Treatment-related TEAE: Respiratory, Thoracic, and Mediastinal disorders, participants n (%) (Pooled SEQ ID NO: 1 (N = 35)): 0 | Treatment-related TEAE: Skin and Subcutaneous Tissue Disorders, occurrences m (Pooled SEQ ID NO: 1 (N = 35)): 1 | Treatment-related TEAE: Skin and Subcutaneous Tissue Disorders, participants n (%) (Pooled SEQ ID NO: 1 (N = 35)): 1 (2.9%) | Treatment-related TEAE: Thrombocytopenia, participants n (%) (Pooled SEQ ID NO: 1 (N = 35)): 0 | Treatment-related TEAE: Vascular Disorders, occurrences m (Pooled SEQ ID NO: 1 (N = 35)): 4 | Treatment-related TEAE: Vascular Disorders, participants n (%) (Pooled SEQ ID NO: 1 (N = 35)): 3 (8.6%) | Treatment-related TEAE: Vessel puncture site erythema, occurrences m (Pooled SEQ ID NO: 1 (N = 35)): 1 | Treatment-related TEAE: Vessel puncture site erythema, participants n (%) (Pooled SEQ ID NO: 1 (N = 35)): 1 (2.9%) | Treatment-related TEAE: Vessel puncture site pain, occurrences m (Pooled SEQ ID NO: 1 (N = 35)): 1 | Treatment-related TEAE: Vessel puncture site pain, participants n (%) (Pooled SEQ ID NO: 1 (N = 35)): 3 (2.9%) | Treatment-related TEAE: Vomiting, occurrences m (Pooled SEQ ID NO: 1 (N = 35)): 1 | Treatment-related TEAE: Vomiting, participants n (%) (Pooled SEQ ID NO: 1 (N = 35)): 1 (2.9%) | Number of Participants Reporting at least: Onc TEAE Leading to Study Withdrawal, n (%) (Pooled active cohorts (N = 35)): 0 | Number of Participants Reporting at least: One Dose-Limiting Toxicity, n (%) (Pooled active cohorts (N = 35)): 0 | Number of Participants Reporting at least: One Related TEAE, n (%) (Pooled active cohorts (N = 35)): 13 (37.1%) | Number of Participants Reporting at least: One Serious TEAE, n (%) (Pooled active cohorts (N = 35)): 0 | Number of Participants Reporting at least: One TEAE Leading to Study Drug Discontinuation, n (%) (Pooled active cohorts (N = 35)): 2 (5.7%) | Number of Participants Reporting at least: One TEAE with Common Terminology Criteria for Adverse Events (CTCAE) Toxicity ≥ Grade 3, n (%) (Pooled active cohorts (N = 35)): 0 | Number of Participants Reporting at least: One TEAE, n (%) (Pooled active cohorts (N = 35)): 31 (88.6%) | One Related TEAE, m (Pooled active cohorts (N = 35)): 23 | One TEAE Leading to Study Drug Discontinuation, m (Pooled active cohorts (N = 35)): 4 | One TEAE, m (Pooled active cohorts (N = 35)): 72 | TEAE Severity Grade 1, m (Pooled active cohorts (N = 35)): 64 | TEAE Severity Grade 1, n (%) (Pooled active cohorts (N = 35)): 30 (85.7%) | TEAE Severity Grade 2, m (Pooled active cohorts (N = 35)): 8 | TEAE Severity Grade 2, n (%) (Pooled active cohorts (N = 35)): 5 (14.3%) | overall safety and tolerability (healthy volunteers, 0.05 to 1 mg/kg, drug concentration below 0.50 mg/mL and dose rate below 25 mg/hour): safe and well tolerated | severity of IRRs in relation to maximum dose rate (maximum dose rate higher (>25 mg/hr)): more severe
